In ChEMBL document CHEMBL1157194, “Recent advances in selective alpha1-adrenoreceptor antagonists as antihypertensive agents” (Bioorg Med Chem, 2008):

How the values were obtained:
[1] = Binding affinity to adrenergic alpha1 receptor
Homo sapiens [2] = species: Homo sapiens; assay: Selectivity for human alpha1A adrenergic receptor over human cloned Alpha-2C adrenergic receptor
Homo sapiens [3] = species: Homo sapiens; assay: Selectivity for human alpha1A adrenergic receptor over human cloned alpha2B adrenergic receptor
Homo sapiens [4] = species: Homo sapiens; assay: Selectivity for human alpha1A adrenergic receptor over human cloned alpha2A adrenergic receptor
[5] = Selectivity for alpha2 adrenergic receptor over alpha1 adrenergic receptor
[6] = Antagonist activity at adrenergic alpha1 receptor; type: functional
[7] = Binding affinity to adrenergic alpha1N receptor
[8] = Binding affinity to adrenergic alpha1H receptor
Rattus norvegicus = species: Rattus norvegicus; assay: Antagonistic activity at alpha 1-adrenoceptor in rat; type: functional, organism-based; details: read-out: pA2 (converted)
[9] = Binding affinity to adrenergic alpha1L receptor
[10] = Dissociation constant, pKb of the compound; type: physicochemical
[11] = target: T1, Alpha-1B adrenergic receptor (Homo sapiens) (UniProt P35368); assay: Antagonist activity at adrenergic Alpha-1B receptor; type: functional
T1 sequence (whole entry): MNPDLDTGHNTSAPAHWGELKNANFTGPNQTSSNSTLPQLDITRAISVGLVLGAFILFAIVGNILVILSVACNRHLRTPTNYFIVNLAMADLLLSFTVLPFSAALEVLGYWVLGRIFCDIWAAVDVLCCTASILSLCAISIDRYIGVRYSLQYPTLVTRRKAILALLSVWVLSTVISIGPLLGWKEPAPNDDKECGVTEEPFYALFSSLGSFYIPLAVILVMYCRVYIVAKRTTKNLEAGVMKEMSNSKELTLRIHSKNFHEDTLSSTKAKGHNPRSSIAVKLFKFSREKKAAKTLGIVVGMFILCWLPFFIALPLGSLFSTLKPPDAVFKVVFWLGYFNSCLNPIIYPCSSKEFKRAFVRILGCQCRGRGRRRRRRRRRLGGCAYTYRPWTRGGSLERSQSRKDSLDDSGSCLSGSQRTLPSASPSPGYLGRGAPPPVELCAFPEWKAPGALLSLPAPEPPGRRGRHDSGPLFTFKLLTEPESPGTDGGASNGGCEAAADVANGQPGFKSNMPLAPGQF

[12] = target: T2, Alpha-1D adrenergic receptor (Homo sapiens) (UniProt P25100); assay: Antagonist activity at adrenergic Alpha-1D receptor; type: functional
T2 sequence (whole entry): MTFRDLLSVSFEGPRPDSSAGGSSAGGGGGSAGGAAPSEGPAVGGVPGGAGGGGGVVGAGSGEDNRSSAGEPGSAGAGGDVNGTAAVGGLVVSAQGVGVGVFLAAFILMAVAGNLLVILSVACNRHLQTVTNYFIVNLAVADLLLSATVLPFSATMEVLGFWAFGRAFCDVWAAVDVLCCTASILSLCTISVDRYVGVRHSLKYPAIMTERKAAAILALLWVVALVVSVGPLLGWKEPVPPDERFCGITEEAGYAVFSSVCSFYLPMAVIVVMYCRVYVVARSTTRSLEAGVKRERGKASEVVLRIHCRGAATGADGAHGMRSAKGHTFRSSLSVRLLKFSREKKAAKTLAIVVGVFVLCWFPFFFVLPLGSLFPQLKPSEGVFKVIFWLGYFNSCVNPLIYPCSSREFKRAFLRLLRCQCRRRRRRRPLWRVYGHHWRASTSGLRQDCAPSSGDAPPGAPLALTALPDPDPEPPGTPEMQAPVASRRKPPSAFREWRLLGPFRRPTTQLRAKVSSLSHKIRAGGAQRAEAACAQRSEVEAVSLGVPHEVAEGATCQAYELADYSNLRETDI

[13] = target: T3, Alpha-1A adrenergic receptor (Oryctolagus cuniculus, UniProt O02824); assay: Agonist activity at rabbit urethra adrenergic alpha1A receptor; type: functional
T3 sequence (O02824 whole entry): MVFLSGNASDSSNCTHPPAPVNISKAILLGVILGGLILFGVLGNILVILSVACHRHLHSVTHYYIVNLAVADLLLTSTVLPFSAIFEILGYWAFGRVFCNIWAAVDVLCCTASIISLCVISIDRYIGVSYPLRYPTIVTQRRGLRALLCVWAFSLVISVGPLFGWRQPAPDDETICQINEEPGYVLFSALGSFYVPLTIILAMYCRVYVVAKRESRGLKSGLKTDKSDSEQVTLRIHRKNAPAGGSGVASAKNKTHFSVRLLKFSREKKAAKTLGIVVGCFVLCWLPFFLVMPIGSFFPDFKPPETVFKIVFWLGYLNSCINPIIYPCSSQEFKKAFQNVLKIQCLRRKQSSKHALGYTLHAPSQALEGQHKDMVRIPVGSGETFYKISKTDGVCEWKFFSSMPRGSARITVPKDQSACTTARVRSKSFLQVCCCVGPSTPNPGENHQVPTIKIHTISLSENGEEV

[14] = target: T4, Alpha-1A adrenergic receptor (Rattus norvegicus) (UniProt P43140); assay: Antagonist activity at rat spleen adrenergic alpha1A receptor relative to phenylephrine; type: functional, tissue-based; set-up: scale not given: the % may be the effect or the level left
T4 sequence (whole entry): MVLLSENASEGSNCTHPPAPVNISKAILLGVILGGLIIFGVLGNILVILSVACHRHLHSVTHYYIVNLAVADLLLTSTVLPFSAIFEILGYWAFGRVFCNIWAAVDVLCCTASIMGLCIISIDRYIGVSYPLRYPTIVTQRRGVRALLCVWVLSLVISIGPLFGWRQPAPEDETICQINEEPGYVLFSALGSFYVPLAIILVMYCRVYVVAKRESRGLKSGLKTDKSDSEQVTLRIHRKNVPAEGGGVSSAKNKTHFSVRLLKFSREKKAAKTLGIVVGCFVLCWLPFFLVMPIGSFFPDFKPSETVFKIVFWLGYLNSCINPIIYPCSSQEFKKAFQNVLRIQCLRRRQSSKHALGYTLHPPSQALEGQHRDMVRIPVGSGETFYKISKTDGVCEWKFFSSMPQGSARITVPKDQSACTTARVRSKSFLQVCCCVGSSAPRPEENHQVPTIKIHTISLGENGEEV

[15] = target: T5, Alpha-1A adrenergic receptor (Rattus norvegicus, UniProt P43140); assay: (§1) Antagonist activity at rat spleen adrenergic alpha1A receptor; type: functional, tissue-based; details: read-out: pA2 (converted)
T5 sequence (P43140 whole entry): T4 sequence (whole entry)

[16] = target: T4, Alpha-1A adrenergic receptor (Rattus norvegicus); assay: as §1; type: functional, tissue-based
[17] = target: T6, Alpha-1A adrenergic receptor (Oryctolagus cuniculus) (UniProt O02824); assay: Antagonist activity at rabbit urethra adrenergic alpha1A receptor relative to phenylephrine; type: functional; set-up: scale not given: the % may be the effect or the level left
T6 sequence (whole entry): T3 sequence (O02824 whole entry)

D(2) dopamine receptor = D(2) dopamine receptor (Homo sapiens, UniProt P14416); assay: Binding affinity to dopamine D2 receptor
[18] = Binding affinity to 5HT2
D(3) dopamine receptor = D(3) dopamine receptor (Homo sapiens, UniProt P35462); assay: Binding affinity to dopamine D3 receptor
[19] = target: T7, 5-hydroxytryptamine receptor 1A (Homo sapiens, UniProt P08908); assay: Binding affinity to 5HT1A
T7 sequence (P08908 whole entry): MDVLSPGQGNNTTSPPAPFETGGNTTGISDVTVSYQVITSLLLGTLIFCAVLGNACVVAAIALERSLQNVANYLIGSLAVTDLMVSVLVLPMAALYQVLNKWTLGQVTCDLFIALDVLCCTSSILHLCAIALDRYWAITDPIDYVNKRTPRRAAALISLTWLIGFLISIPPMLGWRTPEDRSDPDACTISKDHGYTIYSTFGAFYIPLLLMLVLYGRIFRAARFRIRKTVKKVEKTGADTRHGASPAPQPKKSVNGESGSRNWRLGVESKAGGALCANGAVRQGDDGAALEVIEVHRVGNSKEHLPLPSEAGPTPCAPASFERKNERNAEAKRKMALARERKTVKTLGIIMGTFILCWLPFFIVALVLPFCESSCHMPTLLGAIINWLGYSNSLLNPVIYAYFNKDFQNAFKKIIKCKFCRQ

[20] = Binding affinity to adrenergic alpha2 receptor
[21] = target: T8, Alpha-1A adrenergic receptor (Homo sapiens, UniProt P35348); assay: Binding affinity to adrenergic alpha1A receptor
T8 sequence (P35348 whole entry): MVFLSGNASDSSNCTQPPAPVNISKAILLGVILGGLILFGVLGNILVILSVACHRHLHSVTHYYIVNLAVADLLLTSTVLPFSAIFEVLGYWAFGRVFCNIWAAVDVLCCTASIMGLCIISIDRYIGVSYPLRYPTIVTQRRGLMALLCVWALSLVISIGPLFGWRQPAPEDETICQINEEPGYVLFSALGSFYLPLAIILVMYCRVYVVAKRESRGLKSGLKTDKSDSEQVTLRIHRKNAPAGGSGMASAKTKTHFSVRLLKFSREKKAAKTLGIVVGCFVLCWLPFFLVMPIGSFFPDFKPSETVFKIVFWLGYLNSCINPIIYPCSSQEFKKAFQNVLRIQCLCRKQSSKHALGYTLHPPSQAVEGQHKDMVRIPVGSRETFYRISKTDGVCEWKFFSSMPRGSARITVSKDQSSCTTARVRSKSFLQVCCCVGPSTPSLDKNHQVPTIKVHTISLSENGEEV

[22] = target: 5-hydroxytryptamine receptor 1B (Homo sapiens, UniProt P28222); assay: Binding affinity to 5HT1B
[23] = Binding affinity to human cloned dopamine D4.7 receptor
[24] = target: 5-hydroxytryptamine receptor 2A (Homo sapiens, UniProt P28223); assay: Binding affinity to 5HT2A
D(4) dopamine receptor = target: T9, D(4) dopamine receptor (Homo sapiens, UniProt P21917); assay: Binding affinity to human cloned dopamine D4.4 receptor
T9 sequence (P21917 whole entry): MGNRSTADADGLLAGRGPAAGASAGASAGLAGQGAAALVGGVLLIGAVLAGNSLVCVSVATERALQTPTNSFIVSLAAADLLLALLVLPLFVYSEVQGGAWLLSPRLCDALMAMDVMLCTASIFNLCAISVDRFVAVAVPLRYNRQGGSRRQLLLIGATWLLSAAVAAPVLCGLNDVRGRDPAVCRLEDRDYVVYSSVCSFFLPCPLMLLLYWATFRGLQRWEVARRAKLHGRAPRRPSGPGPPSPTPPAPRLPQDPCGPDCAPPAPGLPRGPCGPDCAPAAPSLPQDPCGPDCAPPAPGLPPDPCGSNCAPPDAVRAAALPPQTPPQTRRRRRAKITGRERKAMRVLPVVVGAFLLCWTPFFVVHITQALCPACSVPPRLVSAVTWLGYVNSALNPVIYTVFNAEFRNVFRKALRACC

[25] = Binding affinity to human cloned dopamine D4.2 receptor

Sequence of 5-hydroxytryptamine receptor 2A (P28223 whole entry): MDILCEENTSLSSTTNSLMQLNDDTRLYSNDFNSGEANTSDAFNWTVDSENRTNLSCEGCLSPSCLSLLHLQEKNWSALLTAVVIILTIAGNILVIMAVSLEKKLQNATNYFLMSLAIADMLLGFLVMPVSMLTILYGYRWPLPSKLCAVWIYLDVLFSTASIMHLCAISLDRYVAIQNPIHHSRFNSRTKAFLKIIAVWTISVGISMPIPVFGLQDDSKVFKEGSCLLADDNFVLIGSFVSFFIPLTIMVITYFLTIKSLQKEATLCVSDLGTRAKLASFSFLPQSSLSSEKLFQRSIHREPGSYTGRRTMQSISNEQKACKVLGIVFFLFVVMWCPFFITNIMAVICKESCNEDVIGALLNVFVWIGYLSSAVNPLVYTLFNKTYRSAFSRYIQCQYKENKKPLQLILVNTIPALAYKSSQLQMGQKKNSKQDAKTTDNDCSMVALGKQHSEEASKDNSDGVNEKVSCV
Sequence of 5-hydroxytryptamine receptor 1B (P28222 whole entry): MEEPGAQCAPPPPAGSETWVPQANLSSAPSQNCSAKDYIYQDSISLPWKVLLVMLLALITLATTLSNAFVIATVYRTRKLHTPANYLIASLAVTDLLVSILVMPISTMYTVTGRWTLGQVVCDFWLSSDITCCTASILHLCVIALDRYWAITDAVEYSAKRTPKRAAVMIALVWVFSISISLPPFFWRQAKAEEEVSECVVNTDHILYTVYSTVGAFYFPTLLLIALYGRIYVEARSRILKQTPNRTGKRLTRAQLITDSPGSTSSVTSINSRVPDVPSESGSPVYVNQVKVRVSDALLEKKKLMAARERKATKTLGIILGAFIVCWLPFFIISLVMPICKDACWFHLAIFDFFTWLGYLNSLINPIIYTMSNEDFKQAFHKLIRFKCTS
Sequence of D(3) dopamine receptor (P35462 whole entry): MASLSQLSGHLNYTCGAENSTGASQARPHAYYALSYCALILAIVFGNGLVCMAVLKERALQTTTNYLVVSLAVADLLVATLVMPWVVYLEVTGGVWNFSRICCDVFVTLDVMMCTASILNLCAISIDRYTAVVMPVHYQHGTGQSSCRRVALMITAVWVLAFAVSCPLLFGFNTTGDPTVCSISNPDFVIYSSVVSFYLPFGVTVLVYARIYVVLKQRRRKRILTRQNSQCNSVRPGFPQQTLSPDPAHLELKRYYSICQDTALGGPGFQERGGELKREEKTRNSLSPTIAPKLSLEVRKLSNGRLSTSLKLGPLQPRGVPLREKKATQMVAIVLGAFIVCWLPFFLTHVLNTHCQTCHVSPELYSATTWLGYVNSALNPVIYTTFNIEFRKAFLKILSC
Sequence of D(2) dopamine receptor (P14416 whole entry): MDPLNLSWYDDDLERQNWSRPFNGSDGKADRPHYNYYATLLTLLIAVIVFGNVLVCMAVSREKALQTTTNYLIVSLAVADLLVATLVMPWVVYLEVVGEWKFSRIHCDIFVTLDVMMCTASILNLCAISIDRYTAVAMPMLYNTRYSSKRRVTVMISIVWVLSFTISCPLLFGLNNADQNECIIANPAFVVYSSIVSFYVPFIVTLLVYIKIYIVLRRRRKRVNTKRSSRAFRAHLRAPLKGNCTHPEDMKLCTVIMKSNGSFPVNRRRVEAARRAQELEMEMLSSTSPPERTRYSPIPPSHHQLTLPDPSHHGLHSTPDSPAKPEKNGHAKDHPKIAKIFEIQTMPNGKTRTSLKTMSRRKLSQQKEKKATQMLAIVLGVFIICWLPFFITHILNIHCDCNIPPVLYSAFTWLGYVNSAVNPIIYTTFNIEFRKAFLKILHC

## NC(=O)CN(CCc1ccccc1)C(=O)CN(C(=O)CNCCc1ccc(O)cc1)c1ccc(Oc2ccccc2)cc1
[1]; read-out: Ki
  Ki: 140 nM

## CN1CCN(C2=Nc3cc(Cl)ccc3Nc3ccccc32)CC1 [CLOZAPINE]
[1]; read-out: Ki
  Ki: 1.4 nM

## COC(=O)C1=C(C)NC(C)=C(C(=O)NCCCN2CCC(c3ccccc3)(c3ccccc3)CC2)C1c1ccc([N+](=O)[O-])cc1 (configuration not stated)
Homo sapiens [2]
  Selectivity ratio: > 1000
Homo sapiens [3]
  Selectivity ratio: > 1000
Homo sapiens [4]
  Selectivity ratio: > 1000

## COc1ccccc1OCCN1CCN(c2ccc(=O)n(Cn3nc(N4CCN(CCOc5ccccc5OC)CC4)ccc3=O)n2)CC1
[5]
  Selectivity ratio: > 100

## COc1ccc(Cl)cc1N1CCN(CCNC(=O)c2ccco2)CC1.Cl
[6]
  pA2: 8.56

## COc1cccc(OC)c1OCCNCC1COc2ccccc2O1 (configuration not stated)
[1]
  Ki: 0.54 nM

## COC(=O)[C@@H]1[C@H]2C[C@H]3c4[nH]c5ccccc5c4CCN3C[C@@H]2CC[C@@H]1O
[7]
  Kb: < 100 nM
[8]
  Kb: > 300 nM

## COc1cc2nc(N3CCN(C(=O)c4ccco4)CC3)nc(N)c2cc1OC [PRAZOSIN]
[1]; read-out: Ki
  Ki: 0.32 nM
[7]
  Kb: > 2 nM
[8]
  Kb: < 1 nM
Rattus norvegicus
  Kb: 10 nM
[9]
  Kb: > 2 nM

## COc1ccccc1OCCN1CCN(c2ccn[nH]c2=O)CC1
[10]
  pKb: 6.18

## O=C1NCCN1CCN1CCC(c2cn(-c3ccc(F)cc3)c3ccc(Cl)cc23)CC1
[11]
  Activity: 3.2 nM
[12]
  Activity: 9 nM

## NC(=O)CN(CCc1ccccc1)C(=O)CN(C(=O)CNCCc1ccc(O)cc1)c1ccc(-c2ccccc2)cc1
[1]; read-out: Ki
  Ki: 0.32 nM

## COc1cccc(N2CCN(CCNC(=O)c3ccco3)CC2)c1.Cl
[6]
  pA2: 8.56

## COc1ccccc1N1CCN(CCNC(=O)c2ccco2)CC1.Cl
[6]
  pA2: 9.12

## O=C(CCCN1CCC(O)(c2ccc(Cl)cc2)CC1)c1ccc(F)cc1 [HALOPERIDOL]
[1]; read-out: Ki
  Ki: 1 nM

## CCS(=O)(=O)Nc1cccc(Cc2c[nH]cn2)c1
[13]
  EC50: 60 nM
[14]
  Activity: 11%
[15]
  Kb: 3980 nM
[16]
  pD2: 6.16
[17]
  Activity: 80%

## NC(=O)CN(CCc1ccc(-c2ccccc2)cc1)C(=O)CN(C(=O)CNCCc1ccc(O)cc1)c1ccc(-c2ccccc2)cc1
[1]; read-out: Ki
  Ki: 310 nM

## CC(C)Oc1ccccc1N1CCN(Cc2cccc(C(=O)N3CCCCC3)c2)CC1 [MAZAPERTINE]
D(2) dopamine receptor
  Ki: < 4 nM
[1]; read-out: Ki
  Ki: < 4 nM
[18]
  Ki: 165 nM
D(3) dopamine receptor
  Ki: < 4 nM
[19]
  Ki: < 4 nM
[20]
  Ki: 17 nM
[21]
  Ki: 0.02 nM
[22]
  Ki: 2880 nM

## Cc1cc(C)c2c(N)nc(N3CCN(C(=O)c4ccco4)CC3)nc2n1
Rattus norvegicus
  Kb: 15.8 nM

## Nc1nc(-c2ccc(F)cc2)c([C@@H]2CCN(CCCC(=O)c3ccc(F)cc3)C2)s1
[23]
  Ki: 0.54 nM
[24]
  Ki: 1.92 nM
[1]; read-out: Ki
  Ki: 1.4 nM
D(4) dopamine receptor
  Ki: 0.55 nM
[25]
  Ki: 2.54 nM
